Results: a melting point compilation (Tetko et al.; mined from patent text by program, amines drawn as free bases though some values may be those of a salt)

SMILES | melting point [°C]
N#Cc1ccccc1C=Cc1ccccc1C#N | 187 to 189
COc1cc2c(c3c1OC(C)(C)C3)C(c1ccn(Cc3ccc(C(=O)NCCO)cc3)c(=O)c1)=NC(C)(C)C2 | 220 to 222
CCCCCCCCCC(C)(C)c1cc(C(=O)Nc2ccc(C(=O)O)cc2)ccc1OC | 177
CCOC(=O)c1ncn2c1C(C)(C)Nc1ccccc1-2 | 145 to 149
COc1cccc(CCl)c1SCc1ccccc1 | 54
COc1ccc(CC(C#N)C(=O)O)cc1 (stereo not given) | 94 to 95
OCC(O)Cc1cccc(Cc2ccccc2)c1OCc1ccccc1 (stereo not given) | 55 to 58
Cc1nc(-n2ccc(OCc3ccc(F)cc3)cc2=O)sc1C(=O)NCc1cccnc1 | 231 to 233
COC(=O)c1ccc2cc(OC)ccc2c1O | 109 to 111
FC(F)(c1ccccc1)C(F)(F)c1ccccc1Br | 54 to 55
CC1(Cn2c(=O)oc3ccc(-c4ccccc4)cc32)Cn2cc([N+](=O)[O-])nc2O1 (stereo not given) | 254 to 255
CCN(CCO)c1ccc(I)cc1 | 53 to 54
CCN(C(=O)C1CC1)c1cccc(-c2ccnc3c(C#N)cnn23)c1 | 166 to 168
CC(=O)Nc1ccc2c(c1)C(=O)CC2 | 176 to 180
CCOC(=O)C(Cc1ccc(C(F)(F)F)cc1)C(=O)c1ccoc1 (stereo not given) | 55 to 56
CC(C)(C)OC(=O)NC1Cc2ccccc2C2OC12 (stereo not given) | 118 to 119
CC1CCC(NC(=O)NS(=O)(=O)c2ccc(CCNC(=O)N3CCCCC3=O)cc2)C1 (stereo not given) | 166 to 168
CC(=O)SCC(=Cc1cccc2ccccc12)C(=O)NCCC(=O)OCc1ccccc1 | 78
CN(C)c1ccc2nc[nH]c(=O)c2c1 | 233 to 236
CC(C)n1c(=O)nc(-c2ccccc2)c2ccc(CO)cc21 | 223 to 225
CCC#CCOc1cc(/C=C/C(=O)Nc2ccccc2C(=O)O)ccc1OC | 124 to 125
COC(=O)C(CC(C)C)NCC(=O)n1c(=O)cc(-c2ccccc2)c2cc(C(c3ccc(Cl)cc3)n3ccnc3)ccc21 (stereo not given) | 118
CCCCCc1ccc2c(c1)Cc1cc(CCCCC)ccc1-2 | 98.9 to 99.6
O=C1NC(CN2CCN(c3ccccc3)CC2)Cc2c[nH]c3cccc1c23 (stereo not given) | 184 to 185

SMILES | melting point [°C]
O=C(O)/C=C/c1ccc(C(c2cc(F)ccc2F)S(=O)(=O)c2ccc(Cl)cc2)nc1 (stereo not given) | 236 to 238
O=P(O)(O)C(NCc1ccccc1)c1ccccc1 (stereo not given) | 233 to 236
O=c1c(-c2cccc(C(F)(F)F)c2)coc2c(O)c(O)ccc12 | 225
N#Cc1c(Cl)nc(Cl)nc1N1CCSCC1 | 180
O=C1C2CCN(CC2)C1CN1CCCCC1 (stereo not given) | 34 to 37
O=C1c2c(Cl)cccc2-n2cnc(-c3noc(CCl)n3)c2[C@@H]2CCCN12 | 184 to 186
CCOC(=O)c1cc(-n2c(=O)[nH]c3c(c2=O)CCCC3)ccc1Cl | 196 to 198
O=C1c2ccccc2OCC1C(=O)C(F)(F)F (stereo not given) | 81 to 83
CC[C@H](C)Nc1cc(C(=O)OC)cc(NS(C)(=O)=O)n1 | 119 to 123
CNC(=S)C1(c2ccccn2)CCCS1 (stereo not given) | 131
CC(=O)NCC1CN(C(c2ccccc2)c2ccccc2)C1 | 117 to 119
CCCCCCCCCCCC(=O)NC(=O)N1CC1C#N (stereo not given) | 140 to 143
COc1ccc(NCC(C)C#N)c([N+](=O)[O-])c1 (stereo not given) | 114 to 115
COC(=O)c1ccc(NCC=Cc2ccccc2)cn1 | 131 to 133
COc1cc(-c2csc(C3CC3)n2)cc2oc(=O)c(C)c(C)c12 | 151
CC(C)(C)c1csc(-c2cc3cc(Cc4nc(C(=O)O)cs4)ccc3o2)n1 | 227 to 230
Cc1ccccc1-c1nc(N)ncc1-c1ccc(=O)n(C(C)C)n1 | 203
CC(C)=CCN1Cc2cc(Cl)c(Cl)c3[nH]c(=S)n(c23)C[C@@H]1C | 173
CC(=O)C1(C)COC(c2ccc([N+](=O)[O-])cc2)OC1 (stereo not given) | 101 to 102
Cc1nnc(Sc2ncnc3c(C)csc23)s1 | 144 to 147
CCCCN1CCCN(c2ccccc2)c2cc(Cl)ccc21 | 159 to 161
CS(=O)(=O)c1ccc(-c2c(-c3ccccc3F)[nH]c3ccc(Cl)cc23)cc1 | 246 to 248
COc1ccnc(CCc2nc3cc(-c4ccncc4)cnc3[nH]2)c1 | 237 to 238
CCCCCCOC(=O)OC(C)OC1=C(C(=O)Nc2ccccn2)N(C)S(=O)(=O)c2ccccc21 (stereo not given) | 86 to 87

Continued, values first:

melting point [°C] | SMILES
219 to 221 | COc1ccccc1/C=C/C(=O)Nc1cccc(NC(=N)c2ccccc2)c1
247 to 249 | COc1ccc(-c2cc(=S)n(C)c(=O)[nH]2)cc1OC
180 to 182 | CCCc1nc(C=NNC(=O)OCC)c[nH]1
166 to 168 | COc1c(C2CCN(CCCCNC(=O)c3ccc(-c4ccc(C#N)cc4)nc3)CC2)ccc2c1CCCC2
131 to 134 | CC(C)(C)OC(=O)N[C@H]1CC[C@H](CN2CCN(c3cccc4c3CCC4)CC2)CC1
124 | COC(=O)CCC(=O)Nc1cccc(COc2ccc(C(C)=O)c(OC)c2)c1
98 to 100 | O=C(C1=COCCOCCOCCOCCOCCO1)c1cccnc1
105 to 107 | Cc1ccc(S(=O)(=O)n2cncn2)cc1
200 | CCCc1ncc(/C=C(\Cc2cccs2)C(=O)O)n1Cc1ccccc1Cl
200 to 204 | CCCn1c(=O)c2c(nc(/C=C/c3ccc(OC)c(O)c3)n2C)n(CCC)c1=O
209 | CC(C)(N)c1ccc(-c2nc(Nc3cc(F)cc(F)c3)ncc2C#N)cc1
150 to 157 | CCC(=O)N1CCC(NC(=O)Nc2ccccc2Cl)CC1
93 to 95 | Cc1cncc(C)c1CO
188 to 191 | COc1ccc(-c2cc3ccccc3[nH]2)cc1NC(N)=S
109 | COc1ccc(Cl)cc1C(=O)NCc1ccc(-c2ccc(OC(C)(C)CO)cc2)cc1
110 | CC(C)CCNC(=O)CNC(=O)C(Br)Cc1ccccc1 (stereo not given)
55 to 65 | COC(=O)C(NC(=O)C1CCCS1)C(C)C (stereo not given)
94 to 96 | CCNC(=O)N1CC(Oc2ccc(C(F)(F)F)cc2)C1
127 to 129 | Cc1nc(C(C)(O)c2ccsc2)sc1CCO (stereo not given)

melting point [°C] | SMILES
104 | CCSc1cc(=O)c2c(O)cc(O)c([C@H]3CCN(C)C[C@H]3O)c2o1 (relative stereo)
152 | Cc1nn(C)c(C)c1C(=O)Nc1cccc2c1CCC2(C)C
85 to 86 | CC(C)(C)OC(=O)NC(CO)c1ccc(F)cc1 (stereo not given)
158 to 160 | CC(C)c1cccc(C(C)C)c1NC(=O)CN1CC2(CCCCC2)N(c2ccccc2)CC1=O
78 to 83 | C[C@H]1N(C(=O)c2ccc(OCC(F)(F)C(F)F)cc2)CC(=O)O[C@@]1(Cn1cncn1)c1ccc(F)cc1F (relative stereo)
279 to 283 | c1ccc(-c2noc(-c3cc4c(cn3)[nH]c3ccccc34)n2)cc1
46 | CS(=O)c1ccc(CCCCl)cc1 (stereo not given)
156 to 158 | CN(C)Cc1ccc(CSCCNC2=NS(=O)(=O)N=C2N)o1
> 240 | NCC1Cc2c(F)c(F)cc(-c3ccccc3)c2O1 (stereo not given)
162 to 163 | Nc1ccc(Cl)nc1Nc1ccc2c(c1)OCO2
102 to 105 | Nc1nc2c(s1)CCN(CC=Cc1cccc(C(F)(F)F)c1)CC2
144 to 146 | Cc1c(Cl)nc(Br)n1S(=O)(=O)c1cccnc1Cl
198 | CC(C)c1ncc(OCc2ccccc2)c(O)n1
167 to 169 | CCCn1c(COCC)nc2c(N)nc3ccc(OCCCCCCNC(=O)NC(C)C)cc3c21
144 to 146 | Cc1cccc(C(=O)NO)c1N(C)S(=O)(=O)c1ccc(OCCCNC(=O)c2cc3ccccc3[nH]2)cc1
96 | CC(=O)OC1CC(n2cc(C=CBr)c(=O)[nH]c2=O)OC1CC#N (stereo not given)
100 to 101 | Nc1ccc(Br)cc1CC(F)(F)F
114 to 115 | Brc1ccc(C2=NOCCS2)cc1
112 to 114 | O=C(O)c1ccc(OCCN2CCOCC2)cc1

melting point [°C] | SMILES
248 to 249 | COc1ccc2c(n1)c(C=C[N+](=O)[O-])c1n2CCCO1
97 to 98 | CCC1(O)CC(=O)OCc2c1ccnc2OC (stereo not given)
123 to 127 | CC(C)OC(=O)N[C@@H](C(=O)O)c1ccccc1
178 to 182 | CC(C)(CN)c1ccc2nc(-c3ccc(O)cc3)[nH]c2c1
80 to 110 | COc1ccccc1OC(c1ccccc1)C(O)CN (stereo not given)
291 to 297 | COc1ccc2c(O)c(CO)cnc2c1
61 to 62 | CCOC(=O)Cc1c(C)[nH]c2ccc(F)cc12
175 to 176 | O=C(Cc1ccc2[nH]cc(CCN3C(=O)c4ccccc4C3=O)c2c1)NC1CCCCC1
151 to 154 | O=C(Nc1ccccc1Nc1ccnc2c(NC(=O)c3c(Cl)cccc3Cl)cccc12)c1cccnc1
54 to 55 | COc1ccccc1-c1ccccc1C#N
140 to 141 | Cc1nc(-c2cn(CC3CC3)nn2)sc1C(=O)NCc1cccnc1
182 to 184 | Cc1cc2c(c3ccc(=O)[nH]c13)OC(CSCCN)C2 (stereo not given)
180 to 182 | OCC1OC(n2cc(COc3ccc(C4=NC(=Nc5[nH]c(-c6ccc(O)cc6)cc5-c5ccccc5)C(c5ccccc5)=C4)cc3)nn2)C(O)C(O)C1O (stereo not given)
192 to 195 | COC(=O)c1nc(-c2ccc(Cl)c(OC)c2F)nc(O)c1Br
189 to 191 | O=[N+]([O-])c1ccc(Cl)c(N=C2NCCCN2)c1
92 to 94 | CC(C)C1(CCc2ccccc2CO)CC(O)=C(Sc2sc3ccccc3c2C(C)(C)C)C(=O)O1 (stereo not given)
161 to 163 | CCN(CC)CC(C)COc1ccc2nc(-c3cccc(OC)c3)n(CC(=O)NC(C)C)c(=O)c2c1 (stereo not given)
269 to 274 | O=S1(=O)c2cc(C=C(c3ccccc3)c3ccccc3)ccc2N(c2ccccc2)c2ccc(C=C(c3ccccc3)c3ccccc3)cc21
236 | Nc1nc(N)c(C(=O)NC2=NCCN2)nc1Cl
